Laboratory results: the supplement of paper PMC10307832

How the values were obtained:
Test in all cases: relative viability (nuclei count vs DMSO), 5 days (fraction); higher = more cells survive
A549 = system: A549
Summary of the method: (§1)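 Cells from lung cancer lines were seeded into 1536-well plates and, one day later, dosed by pin tool. Treatments were either a single drug or a fixed dose of an anchor drug with five library-drug doses (not always all listed) in √10 steps. After 5 days, nuclei were stained in a one-step fixation (final 0.05% Triton X-100, 1% formaldehyde, 1 ug/ml Hoechst) and counted on 4× images, and relative viability is the treated-to-vehicle nuclei ratio, as the median of duplicate plates.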

CAL-12T = system: CAL-12T
Summary of the method: as §1

LK-2 = system: LK-2
Summary of the method: as §1

NCI-H1623 = system: NCI-H1623
Summary of the method: as §1

NCI-H1650 = system: NCI-H1650
Summary of the method: as §1

NCI-H522 = system: NCI-H522
Summary of the method: as §1

Calu-6 = system: Calu-6
Summary of the method: as §1

EBC-1 = system: EBC-1
Summary of the method: as §1

IA-LM = system: IA-LM
Summary of the method: as §1

NCI-H1299 = system: NCI-H1299
Summary of the method: as §1

NCI-H1648 = system: NCI-H1648
Summary of the method: as §1

NCI-H1703 = system: NCI-H1703
Summary of the method: as §1

Structure (SMILES): C=C1C(=O)O[C@@H](CCCCCCCC)[C@@H]1C(=O)O [C-75] + N=C(N)NC(=N)NCCc1ccccc1 [Phenformin] (partner 250 µM)
- relative viability (A549; first compound 0.08 µM): 0.185
- relative viability (A549; first compound 0.253 µM): 0.211
- relative viability (A549; first compound 0.8 µM): 0.186
- relative viability (A549; first compound 2.53 µM): 0.119
- relative viability (A549; first compound 8 µM): 0.121
- relative viability (CAL-12T; first compound 0.08 µM): 0.545
- relative viability (CAL-12T; first compound 0.253 µM): 0.746
- relative viability (CAL-12T; first compound 0.8 µM): 0.567
- relative viability (CAL-12T; first compound 2.53 µM): 0.556
- relative viability (CAL-12T; first compound 8 µM): 0.515
- relative viability (LK-2; first compound 0.08 µM): 0.519
- relative viability (LK-2; first compound 0.253 µM): 0.537
- relative viability (LK-2; first compound 0.8 µM): 0.484
- relative viability (LK-2; first compound 2.53 µM): 0.226
- relative viability (LK-2; first compound 8 µM): 0.273
- relative viability (NCI-H1623; first compound 0.08 µM): 0.613
- relative viability (NCI-H1623; first compound 0.253 µM): 0.652
- relative viability (NCI-H1623; first compound 0.8 µM): 0.584
- relative viability (NCI-H1623; first compound 2.53 µM): 0.542
- relative viability (NCI-H1623; first compound 8 µM): 0.578
- relative viability (NCI-H1650; first compound 0.08 µM): 0.47
- relative viability (NCI-H1650; first compound 0.253 µM): 0.502
- relative viability (NCI-H1650; first compound 2.53 µM): 0.448
- relative viability (NCI-H1650; first compound 8 µM): 0.491
- relative viability (NCI-H522; first compound 0.08 µM): 0.61
- relative viability (NCI-H522; first compound 0.253 µM): 0.382
- relative viability (NCI-H522; first compound 0.8 µM): 0.614
- relative viability (NCI-H522; first compound 8 µM): 0.582

Structure (SMILES): NC(=O)Nc1cc(-c2cccc(F)c2)sc1C(=O)N[C@H]1CCCNC1 [AZD7762] + Cc1nc(Nc2ncc(C(=O)Nc3c(C)cccc3Cl)s2)cc(N2CCN(CCO)CC2)n1 [Dasatinib] (partner 0.075 µM)
- relative viability (CAL-12T; first compound 0.01 µM): 0.637
- relative viability (CAL-12T; first compound 0.03162 µM): 0.463
- relative viability (CAL-12T; first compound 0.1 µM): 0.47
- relative viability (CAL-12T; first compound 0.3162 µM): 0.23
- relative viability (CAL-12T; first compound 1 µM): 0.0827
- relative viability (LK-2; first compound 0.01 µM): 0.269
- relative viability (LK-2; first compound 0.03162 µM): 0.266
- relative viability (LK-2; first compound 0.1 µM): 0.283
- relative viability (LK-2; first compound 0.3162 µM): 0.27
- relative viability (LK-2; first compound 1 µM): 0.298
- relative viability (NCI-H1623; first compound 0.01 µM): 0.471
- relative viability (NCI-H1623; first compound 0.03162 µM): 0.558
- relative viability (NCI-H1623; first compound 0.1 µM): 0.615
- relative viability (NCI-H1623; first compound 0.3162 µM): 0.482
- relative viability (NCI-H1623; first compound 1 µM): 0.482
- relative viability (NCI-H1650; first compound 0.01 µM): 0.313
- relative viability (NCI-H1650; first compound 0.03162 µM): 0.311
- relative viability (NCI-H1650; first compound 0.1 µM): 0.314
- relative viability (NCI-H1650; first compound 0.3162 µM): 0.264
- relative viability (NCI-H1650; first compound 1 µM): 0.19
- relative viability (NCI-H522; first compound 0.01 µM): 0.923
- relative viability (NCI-H522; first compound 0.03162 µM): 0.919
- relative viability (NCI-H522; first compound 0.1 µM): 0.76
- relative viability (NCI-H522; first compound 0.3162 µM): 0.933
- relative viability (NCI-H522; first compound 1 µM): 0.946

Structure (SMILES): NC(=O)Nc1cc(-c2cccc(F)c2)sc1C(=O)N[C@H]1CCCNC1 [AZD7762] + CCNC(=O)c1noc(-c2cc(C(C)C)c(O)cc2O)c1-c1ccc(CN2CCOCC2)cc1 [Luminespib] (partner 0.01 µM)
- relative viability (CAL-12T; first compound 0.01 µM): 0.331
- relative viability (CAL-12T; first compound 0.03162 µM): 0.397
- relative viability (CAL-12T; first compound 0.1 µM): 0.17
- relative viability (CAL-12T; first compound 0.3162 µM): 0.147
- relative viability (CAL-12T; first compound 1 µM): 0.223
- relative viability (LK-2; first compound 0.01 µM): 0.198
- relative viability (LK-2; first compound 0.03162 µM): 0.155
- relative viability (LK-2; first compound 0.1 µM): 0.215
- relative viability (LK-2; first compound 0.3162 µM): 0.164
- relative viability (LK-2; first compound 1 µM): 0.167
- relative viability (NCI-H1623; first compound 0.01 µM): 0.421
- relative viability (NCI-H1623; first compound 0.03162 µM): 0.591
- relative viability (NCI-H1623; first compound 0.1 µM): 0.602
- relative viability (NCI-H1623; first compound 0.3162 µM): 0.604
- relative viability (NCI-H1623; first compound 1 µM): 0.418
- relative viability (NCI-H1650; first compound 0.01 µM): 0.191
- relative viability (NCI-H1650; first compound 0.03162 µM): 0.175
- relative viability (NCI-H1650; first compound 0.1 µM): 0.22
- relative viability (NCI-H1650; first compound 0.3162 µM): 0.186
- relative viability (NCI-H1650; first compound 1 µM): 0.192
- relative viability (NCI-H522; first compound 0.01 µM): 1.14
- relative viability (NCI-H522; first compound 0.03162 µM): 1.23
- relative viability (NCI-H522; first compound 0.1 µM): 1.14
- relative viability (NCI-H522; first compound 0.3162 µM): 1.35
- relative viability (NCI-H522; first compound 1 µM): 1

Structure (SMILES): O=C(O)c1ccc(-c2c[nH]c3ncc(-c4ccccc4)cc23)cc1C1CCCC1 + O=C(c1cc(Cc2n[nH]c(=O)c3ccccc23)ccc1F)N1CCN(C(=O)C2CC2)CC1 [Olaparib] (partner 8 µM)
- relative viability (A549; first compound 0.04 µM): 0.224
- relative viability (A549; first compound 0.1265 µM): 0.674
- relative viability (A549; first compound 0.4 µM): 0.345
- relative viability (A549; first compound 1.265 µM): 0.307
- relative viability (CAL-12T; first compound 0.04 µM): 0.656
- relative viability (CAL-12T; first compound 0.1265 µM): 0.668
- relative viability (CAL-12T; first compound 0.4 µM): 0.566
- relative viability (CAL-12T; first compound 1.265 µM): 0.379
- relative viability (Calu-6; first compound 0.04 µM): 0.521
- relative viability (Calu-6; first compound 0.1265 µM): 0.56
- relative viability (Calu-6; first compound 0.4 µM): 0.488
- relative viability (Calu-6; first compound 1.265 µM): 0.395
- relative viability (EBC-1; first compound 0.04 µM): 0.692
- relative viability (EBC-1; first compound 0.1265 µM): 0.626
- relative viability (EBC-1; first compound 0.4 µM): 0.618
- relative viability (EBC-1; first compound 1.265 µM): 0.406
- relative viability (IA-LM; first compound 0.04 µM): 0.836
- relative viability (IA-LM; first compound 0.1265 µM): 0.758
- relative viability (IA-LM; first compound 0.4 µM): 0.846
- relative viability (IA-LM; first compound 1.265 µM): 0.719
- relative viability (LK-2; first compound 0.04 µM): 0.734
- relative viability (LK-2; first compound 0.1265 µM): 0.641
- relative viability (LK-2; first compound 0.4 µM): 0.636
- relative viability (LK-2; first compound 1.265 µM): 0.648
- relative viability (NCI-H1299; first compound 0.04 µM): 0.964
- relative viability (NCI-H1299; first compound 0.1265 µM): 1
- relative viability (NCI-H1299; first compound 0.4 µM): 0.893
- relative viability (NCI-H1299; first compound 1.265 µM): 0.821
- relative viability (NCI-H1648; first compound 0.04 µM): 0.676
- relative viability (NCI-H1648; first compound 0.1265 µM): 1.15
- relative viability (NCI-H1648; first compound 0.4 µM): 0.763
- relative viability (NCI-H1650; first compound 0.04 µM): 0.735
- relative viability (NCI-H1650; first compound 0.1265 µM): 0.815
- relative viability (NCI-H1650; first compound 0.4 µM): 0.65
- relative viability (NCI-H1650; first compound 1.265 µM): 0.606
- relative viability (NCI-H1703; first compound 0.04 µM): 0.57
- relative viability (NCI-H1703; first compound 0.1265 µM): 0.468
- relative viability (NCI-H1703; first compound 0.4 µM): 0.382
- relative viability (NCI-H1703; first compound 1.265 µM): 0.49
- relative viability (NCI-H522; first compound 0.04 µM): 0.816
- relative viability (NCI-H522; first compound 0.1265 µM): 0.673
- relative viability (NCI-H522; first compound 0.4 µM): 0.596
- relative viability (NCI-H522; first compound 1.265 µM): 0.755
